Reference: US9221834B2 (Merck Sharp & Dohme Corp., priority 2010, dated 2015)

Target: T1, recombinant CETP (rCETP) (Homo sapiens, UniProt P11597)
T1 sequence (P11597 18-493): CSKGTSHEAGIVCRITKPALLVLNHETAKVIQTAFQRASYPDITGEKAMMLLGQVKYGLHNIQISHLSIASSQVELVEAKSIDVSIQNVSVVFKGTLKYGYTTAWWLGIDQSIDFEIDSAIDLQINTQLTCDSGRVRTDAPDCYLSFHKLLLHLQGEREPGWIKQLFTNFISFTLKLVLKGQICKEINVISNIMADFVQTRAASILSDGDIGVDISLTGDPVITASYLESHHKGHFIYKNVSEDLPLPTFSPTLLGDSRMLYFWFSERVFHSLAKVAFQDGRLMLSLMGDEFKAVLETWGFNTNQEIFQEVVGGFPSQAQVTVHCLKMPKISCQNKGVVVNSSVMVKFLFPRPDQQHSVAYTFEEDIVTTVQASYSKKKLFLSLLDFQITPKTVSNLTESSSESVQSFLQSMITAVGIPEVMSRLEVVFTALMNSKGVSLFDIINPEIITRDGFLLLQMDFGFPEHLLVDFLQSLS
Test: RTA assay using recombinant CETP (2% RTA)
Format: biochemical
Conditions: RTA assay in 2% human serum; read-out: IC50
In short: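 Compounds preincubated 1 h at 37 °C with assay cocktail (CETP buffer: 50 mM Tris pH 7.4, 100 mM NaCl, 1 mM EDTA; human HDL acceptor); transfer started with [3H]cholesteryl oleate- or [3H]triolein-labelled LDL, 60 min at 37 °C. LDL PEG-precipitated; supernatant counted by scintillation, blank-corrected; IC50 from 4-parameter sigmoidal fit of % inhibition vs DMSO control.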

Compound | IC50
C[C@H]1[C@@H](c2cc(C(F)(F)F)cc(C(F)(F)F)c2)OC(=O)N1Cc1nc(N2CCC2)ccc1-c1cc(CCC(=O)O)ccc1OC1CC1 [Example 248] | 19 nM
COc1ccc([C@H]2CC[C@H](C(=O)O)CC2)cc1-c1ccc(N2CCC2)nc1CN1C(=O)O[C@H](c2cccc(C(F)(F)F)c2)[C@@H]1C [Example 219] | 44 nM
Cc1cc(C(=O)O)ccc1-c1cc(-c2cnc(N3CCC3)nc2CN2C(=O)O[C@H](c3cccc(C(F)(F)F)c3)[C@@H]2C)ccc1F [Example 276] | 76 nM
COc1cc2c(cc1-c1cnc(N3CCC3)nc1CN1C(=O)O[C@H](c3cc(C(F)(F)F)cc(C(F)(F)F)c3)[C@@H]1C)[C@H](CC(=O)O)CC2 [Example 155] | 40 nM
COc1ccc(-c2ncc(C(=O)O)n2C)cc1-c1ccc(N2CCC2)nc1CN1C(=O)O[C@H](c2cc(C(F)(F)F)cc(C(F)(F)F)c2)[C@@H]1C [Example 117] | 25 nM
COc1ccc(C2CCC(O)C2)cc1-c1ccc(N2CCC2)nc1CN1C(=O)O[C@H](c2cc(C(F)(F)F)cc(C(F)(F)F)c2)[C@@H]1C (mixture of isomers) [Example 262] | 3 nM
COc1ccc(-c2ncc(C(=O)O)s2)cc1-c1ccc(N2CCC2)nc1CN1C(=O)O[C@H](c2cc(C(F)(F)F)cc(C(F)(F)F)c2)[C@@H]1C [Example 114] | 50 nM
COc1cc(F)c(-c2ccc(C(=O)O)cc2C)cc1-c1cnc(N2CC(F)(F)C2)nc1CN1C(=O)O[C@H](c2cc(C(F)(F)F)cc(C(F)(F)F)c2)[C@@H]1C [Example 161] | 7 nM
COc1ccc([C@H]2CC[C@H](C(=O)O)CC2)cc1-c1ccc(N2CC(F)(F)C2)nc1CN1C(=O)O[C@H](c2cc(C)cc(C(F)(F)F)c2)[C@@H]1C [Example 293] | 7 nM
COC(=O)c1ccc(-c2ccc(OC)c(-c3ccc(N4CCC4)nc3CN3C(=O)O[C@H](c4cc(C)cc(C)c4)[C@@H]3C)c2)c(C)c1 [Example 211] | 23 nM
C[C@H]1[C@@H](c2cc(C(F)(F)F)cc(C(F)(F)F)c2)OC(=O)N1Cc1nc(N2CCC2)ccc1-c1cc(CCC(=O)O)ccc1Cl [Example 74] | 9 nM
COC(=O)CCc1ccc(Cl)c(-c2ccc(N3CCC3)nc2CN2C(=O)O[C@H](c3cc(C(F)(F)F)cc(C(F)(F)F)c3)[C@@H]2C)c1 [Example 5] | 7 nM
COc1ccc([C@@H]2C[C@H]2C(N)=O)cc1-c1ccc(N2CCC2)nc1CN1C(=O)O[C@H](c2cc(C)cc(C)c2)[C@@H]1C [Example 250] | 54 nM
COC(=O)[C@H]1CC[C@H](c2ccc(Cl)c(-c3cnc(N4CCC4)nc3CN3C(=O)O[C@H](c4cc(C(F)(F)F)cc(C(F)(F)F)c4)[C@@H]3C)c2)CC1 [Example 146] | 160 nM
COc1ccc([C@H]2CC[C@H](C(=O)O)CC2)cc1-c1ccc(N2CC(F)(F)C2)nc1CN1C(=O)O[C@H](c2cccc(OC(F)(F)F)c2)[C@@H]1C [Example 294] | 102 nM
COc1ccc(C(C)(C)CC(=O)O)cc1-c1ccc(N2CCC2)nc1CN1C(=O)O[C@H](c2cc(C(F)(F)F)cc(C(F)(F)F)c2)[C@@H]1C [Example 77] | 15 nM
COC(=O)[C@H]1CC[C@@H](c2ccc(OC)c(-c3ccc(N4CCC4)nc3CN3C(=O)O[C@H](c4cc(C(F)(F)F)cc(C(F)(F)F)c4)[C@@H]3C)c2)C1 (single isomer, unassigned) [Example 218] | 12 nM
COc1ccc([C@H]2CC[C@H](C(=O)O)CC2)cc1-c1ccc(N2CCC2)nc1CN1C(=O)O[C@H](c2cc(C)cc(C)c2)[C@@H]1C [Example 224] | 14 nM
COc1ccc(CCCO)cc1-c1ccc(N2CCC2)nc1CN1C(=O)O[C@H](c2cc(C(F)(F)F)cc(C(F)(F)F)c2)[C@@H]1C [Example 264, (4S,5R)-3-({6-azetidin-1-yl-3-[5-(3-hydroxypropy)-2-methoxyphenyl]pyridin-2-yl}methyl)-5-[3,5-bis(trifluoromethyl)phenyl]-4-methyl-1,3-oxazolidin-2-one] | 2 nM
COC(=O)c1ccc(-c2cc(-c3ccc(N4CCC4)nc3CN3C(=O)O[C@H](c4cc(F)c(F)c(F)c4)[C@@H]3C)c(OC)cc2F)c(C)c1 [Example 36] | 26 nM
COc1cc2c(cc1-c1ccc(N3CCC3)nc1CN1C(=O)O[C@H](c3cc(F)cc(F)c3)[C@@H]1C)[C@H](CC(=O)O)CC2 [Example 86] | 415 nM
COc1cc(F)c(-c2ccc(C(=O)O)cc2C)cc1-c1cnc(N2CC(OC)C2)nc1CN1C(=O)O[C@H](c2cc(C(F)(F)F)cc(C(F)(F)F)c2)[C@@H]1C [Example 165] | 11 nM

Compound | IC50
COc1ccc(-c2csc(C(=O)O)c2C)cc1-c1ccc(N2CCC2)nc1CN1C(=O)O[C@H](c2cc(C(F)(F)F)cc(C(F)(F)F)c2)[C@@H]1C [Example 108] | 5 nM
CCOC(=O)[C@@H]1C[C@H]1c1ccc(OC)c(-c2ccc(N3CCC3)nc2CN2C(=O)O[C@H](c3ccc(F)c(F)c3)[C@@H]2C)c1 [Example 13] | 498 nM
COC(=O)CC(C)(C)c1ccc(OC)c(-c2ccc(N3CCC3)nc2CN2C(=O)O[C@H](c3cccc(C)c3)[C@@H]2C)c1 [Example 203] | 106 nM
COc1ccc(-c2ccc(C(=O)O)cc2C)cc1-c1cnc(N2CC(OC)C2)nc1CN1C(=O)O[C@H](c2cc(C(F)(F)F)cc(C(F)(F)F)c2)[C@@H]1C [Example 164] | 16 nM
CCOC(=O)CCc1ccc(OC)c(-c2ccc(N3CCC3)nc2CN2C(=O)O[C@H](c3cc(C)cc(C)c3)[C@@H]2C)c1 [Example 198] | 50 nM
COc1ccc(C2C[C@H]2C(=O)O)cc1-c1cnc(N2CCC2)nc1CN1C(=O)O[C@H](c2cc(C(F)(F)F)cc(C(F)(F)F)c2)[C@@H]1C (stereo partly shown) [Example 153] | 53 nM
CCc1ccc(-c2ccc(C(=O)O)cc2C)cc1-c1cnc(N2CC(OC)C2)nc1CN1C(=O)O[C@H](c2cc(C(F)(F)F)cc(C(F)(F)F)c2)[C@@H]1C [Example 166] | 46 nM
COC(=O)c1cc(C)c(-c2ccc(OC)c(-c3ccc(N4CCC4)nc3CN3C(=O)O[C@H](c4cc(C(F)(F)F)cc(C(F)(F)F)c4)[C@@H]3C)c2)s1 [Example 46, Methyl 5-{3-[6-azetidin-1-yl-2-({(4S,5R)-5-[3,5-bis(trifluoromethyl)phenyl]-4-methyl-2-oxo-1,3-oxazolidin-3-yl}methyl)pyridin-3-yl]-4-methoxyphenyl}-4-methylthiophene-2-carboxylate] | 10 nM
COc1cc(F)c([C@H]2C[C@H](C(=O)O)C2)cc1-c1ccc(N2CCC2)nc1CN1C(=O)O[C@H](c2cc(C(F)(F)F)cc(C(F)(F)F)c2)[C@@H]1C [Example 104] | 4 nM
CCc1ccc(-c2ccc(C(=O)O)cc2C)cc1-c1cnc(N2CC(F)(F)C2)nc1CN1C(=O)O[C@H](c2cc(C(F)(F)F)cc(C(F)(F)F)c2)[C@@H]1C [Example 162] | 6 nM
CCOC(=O)[C@@H]1C[C@H]1c1ccc(CC)c(-c2ccc(N3CCC3)nc2CN2C(=O)O[C@H](c3cc(C(F)(F)F)cc(C(F)(F)F)c3)[C@@H]2C)c1 [Example 22] | 11 nM
COC(=O)[C@H]1CC[C@H](c2ccc(Cl)c(-c3cnc(N4CC(OC)C4)nc3CN3C(=O)O[C@H](c4cc(C(F)(F)F)cc(C(F)(F)F)c4)[C@@H]3C)c2)CC1 [Example 138] | 2030 nM
COc1ccc(Cl)cc1-c1ccc(N2CCC2)nc1CN1C(=O)O[C@H](c2cc(C(F)(F)F)cc(C(F)(F)F)c2)[C@@H]1C [Example 27, (4S,5R)-3-{[6-azetidin-1-yl-3-(5-chloro-2-methoxyphenyl)pyridin-2-yl]methyl}-5-[3,5-bis(trifluoromethyl)phenyl]-4-methyl-1,3-oxazolidin-2-one] | 3 nM
COCCCc1ccc(OC2CC2)c(-c2ccc(N3CCC3)nc2CN2C(=O)O[C@H](c3cc(C(F)(F)F)cc(C(F)(F)F)c3)[C@@H]2C)c1 [Example 261] | 42 nM
COc1ccc(CC(C)(C)C(=O)O)cc1-c1ccc(N2CCC2)nc1CN1C(=O)O[C@H](c2cccc(C(F)(F)F)c2)[C@@H]1C [Example 221] | 145 nM
CCOC(=O)c1csc(-c2ccc(OC)c(-c3ccc(N4CCC4)nc3CN3C(=O)O[C@H](c4cc(C(F)(F)F)cc(C(F)(F)F)c4)[C@@H]3C)c2)n1 [Example 54] | 189 nM
COC(=O)c1ccc(-c2ccc(OC)c(-c3ccc(N4CCC4)nc3CN3C(=O)O[C@H](c4cccc(C)c4)[C@@H]3C)c2)c(C)c1 [Example 212] | 75 nM
COc1ccc([C@H]2CC[C@H](C(=O)OC)CC2)cc1-c1cnc(N2CC(F)(F)C2)nc1CN1C(=O)O[C@H](c2cc(C(F)(F)F)cc(C(F)(F)F)c2)[C@@H]1C [Example 128] | 1080 nM
COC(=O)c1ccc(-c2ccc(OC)c(-c3ccc(N4CCC4)nc3CN3C(=O)O[C@H](c4cccc(C(F)(F)F)c4)[C@@H]3C)c2)c(C)c1 [Example 210] | 22 nM
COc1ccc(CC(C)(C)C(=O)O)cc1-c1ccc(N2CCC2)nc1CN1C(=O)O[C@H](c2cc(C(F)(F)F)cc(C(F)(F)F)c2)[C@@H]1C [Example 122, 3-{3-[6-Azetidin-1-yl-2-({(4S,5R)-5-[3,5-bis(trifluoromethyl)phenyl]-4-methyl-2-oxo-1,3-oxazolidin-3-yl}methyl)pyridin-3-yl]-4-methoxyphenyl}-2,2-dimethylpropanoic acid] | 15 nM
COC(=O)CCc1ccc(OC)c(-c2ccc(N3CCC3)nc2CN2C(=O)O[C@H](c3cc(F)c(F)c(F)c3)[C@@H]2C)c1 [Example 31] | 97 nM
